Results from US20240101540A1, “TARGETED PROTEIN DEGRADATION OF PARP14 FOR USE IN THERAPY” (Ribon Therapeutics, Inc., priority 2022, published 2024).
Read-outs that look alike come from different tables or passages of the source.

Biological target: T1, catalytic domain of human PARP14 (residues 1611 to 1801) with NanoLuc tag (Homo sapiens, UniProt Q460N5)
T1 construct: expressed in transfected cells; host or cells: HEK-293T cells (ATCC), pcDNA3.1(-) vector
T1 sequence (Q460N5 1611-1801): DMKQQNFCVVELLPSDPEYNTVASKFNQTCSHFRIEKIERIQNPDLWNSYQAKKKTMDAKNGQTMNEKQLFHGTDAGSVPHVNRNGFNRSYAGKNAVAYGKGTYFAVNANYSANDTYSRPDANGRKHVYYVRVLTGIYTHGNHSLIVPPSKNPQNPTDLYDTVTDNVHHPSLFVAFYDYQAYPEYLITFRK
Assay: NanoLuc assay for the degradation of PARP14 (NanoLuc-tagged PARP14 overexpressed in HEK-293T cells, 2 hours)
Format: cell-based
Conditions: Assay A (Example A): NanoLuc-tagged PARP14 degradation in HEK-293T cells
Procedure: The insert also contained a NanoLuc tag on the N terminus of the PARP14 protein.
Degradation of PARP14 protein was assessed using measurement of the NanoLuc tag as proxy for the PARP14 protein. […] Plasmid DNA was diluted in empty vector DNA then added to 1.163 mL of phenol red free OptiMEM (Thermo Fisher). Plasmid DNA concentrations used in each assay described in Table 1. The plasmid DNA was mixed with 78.5 μL of Fugene HD (Promega) and allowed to incubate 5 minutes.
The transfection was incubated for 24 hrs at 37 degrees in an incubator supplemented with 5% CO2. The cells were then trypsinized and brought up in phenol red free OptiMEM media. […] 40 nL of a dose response curve diluted in DMSO of each test compound was added to the cell plate using a Mosquito (TTP Labtech) and the plate was incubated at 37° C. for 2 hours. Assay plate was brought to room temperature then 20 μL per well of NanoGlo (Promega) was added to the plate. Luminescence was measured on an Envision (Perkin Elmer).
The average DMSO was calculated from 32 wells containing 0.1% DMSO only in columns 12 and 24 of the assay plate. The % of DMSO values were calculated as described below: […]
The % of DMSO values were plotted as a function of compound concentration and the following 4-parameter fit was applied to derive the DC50 values:
where top, bottom, and Hill Coefficient are allowed to float. Y is the % of DMSO and X is the compound concentration
DC50 data for the Example compounds is provided below in Table 2 (“+” is <0.1 μM; “++” is ≥0.1 μM and <1 μM; and “+++” is ≥1 μM).

| DC50 (read-out: DC50) | SMILES | DC50 |
| --- | --- | --- |
| < 100 nM | O=C1CCN(c2cccc(C#CCN3CCC(COc4cc(F)c5c(=O)[nH]c(CSC6CCOCC6)nc5c4)CC3)c2)C(=O)N1 [Example 33, 1-(3-(3-(4-(((5-fluoro-4-oxo-2-(((tetrahydro-2H-pyran-4-yl)thio)methyl)-3,4-dihydroquinazolin-7-yl)oxy)methyl)piperidin-1-yl)prop-1-yn-1-yl)phenyl)dihydropyrimidine-2,4(1H,3H)-dione] | – |
| < 100 nM | O=C1CCC(N2C(=O)c3ccc(N4CCC(CN5CCC(COc6cc(F)c7c(=O)[nH]c(CSC8CCOCC8)nc7c6)CC5)CC4)cc3C2=O)C(=O)N1 (stereo not drawn) [Example 34, 2-(2,6-dioxopiperidin-3-yl)-5-(4-((4-(((5-fluoro-4-oxo-2-(((tetrahydro-2H-pyran-4-yl)thio)methyl)-3,4-dihydroquinazolin-7-yl)oxy)methyl)piperidin-1-yl)methyl)piperidin-1-yl)isoindoline-1,3-dione] | – |
| < 100 nM | O=C1CCC(N2C(=O)c3cccc(N4CCC(CN5CCC(COc6cc(F)c7c(=O)[nH]c(CSC8CCOCC8)nc7c6)CC5)CC4)c3C2=O)C(=O)N1 (stereo not drawn) [Example 35, 2-(2,6-dioxopiperidin-3-yl)-4-(4-((4-(((5-fluoro-4-oxo-2-(((tetrahydro-2H-pyran-4-yl)thio)methyl)-3,4-dihydroquinazolin-7-yl)oxy)methyl)piperidin-1-yl)methyl)piperidin-1-yl)isoindoline-1,3-dione] | – |
| < 100 nM | O=C1CCC(N2C(=O)c3ccc(N4CC(CN5CCC(COc6cc(F)c7c(=O)[nH]c(CSC8CCOCC8)nc7c6)CC5)C4)cc3C2=O)C(=O)N1 (stereo not drawn) [Example 36, 2-(2,6-dioxopiperidin-3-yl)-5-(3-((4-(((5-fluoro-4-oxo-2-(((tetrahydro-2H-pyran-4-yl)thio)methyl)-3,4-dihydroquinazolin-7-yl)oxy)methyl)piperidin-1-yl)methyl)azetidin-1-yl)isoindoline-1,3-dione] | – |
| < 100 nM | O=C1CCC(N2C(=O)c3cccc(N4CC(CN5CCC(COc6cc(F)c7c(=O)[nH]c(CSC8CCOCC8)nc7c6)CC5)C4)c3C2=O)C(=O)N1 (stereo not drawn) [Example 37, 2-(2,6-dioxopiperidin-3-yl)-4-(3-((4-(((5-fluoro-4-oxo-2-(((tetrahydro-2H-pyran-4-yl)thio)methyl)-3,4-dihydroquinazolin-7-yl)oxy)methyl)piperidin-1-yl)methyl)azetidin-1-yl)isoindoline-1,3-dione] | – |
| < 100 nM | O=C1CCC(N2Cc3c(cccc3N3CC(CN4CCC(COc5cc(F)c6c(=O)[nH]c(CSC7CCOCC7)nc6c5)CC4)C3)C2=O)C(=O)N1 (stereo not drawn) [Example 38, 3-(4-(3-((4-(((5-fluoro-4-oxo-2-(((tetrahydro-2H-pyran-4-yl)thio)methyl)-3,4-dihydroquinazolin-7-yl)oxy)methyl)piperidin-1-yl)methyl)azetidin-1-yl)-1-oxoisoindolin-2-yl)piperidine-2,6-dione] | – |
| < 100 nM | O=C1CCC(N2C(=O)c3cccc(N4CCN(CC5CCN(C(=O)CN6CCC(COc7cc(F)c8c(=O)[nH]c(CCC9CCOCC9)nc8c7)CC6)CC5)CC4)c3C2=O)C(=O)N1 (stereo not drawn) [Example 39, 2-(2,6-dioxopiperidin-3-yl)-4-(4-((1-(2-(4-(((5-fluoro-4-oxo-2-(2-(tetrahydro-2H-pyran-4-yl)ethyl)-3,4-dihydroquinazolin-7-yl)oxy)methyl)piperidin-1-yl)acetyl)piperidin-4-yl)methyl)piperazin-1-yl)isoindoline-1,3-dione] | – |
| < 100 nM | O=C1CCC(N2C(=O)c3cccc(N4CC(N5CCC(COc6cc(F)c7c(=O)[nH]c(CSC8CCOCC8)nc7c6)CC5)C4)c3C2=O)C(=O)N1 (stereo not drawn) [Example 40, 2-(2,6-dioxopiperidin-3-yl)-4-(3-(4-(((5-fluoro-4-oxo-2-(((tetrahydro-2H-pyran-4-yl)thio)methyl)-3,4-dihydroquinazolin-7-yl)oxy)methyl)piperidin-1-yl)azetidin-1-yl)isoindoline-1,3-dione] | – |
| < 100 nM | O=C1CCC(N2C(=O)c3ccc(N4CC(N5CCC(COc6cc(F)c7c(=O)[nH]c(CSC8CCOCC8)nc7c6)CC5)C4)cc3C2=O)C(=O)N1 (stereo not drawn) [Example 41, 2-(2,6-dioxopiperidin-3-yl)-5-(3-(4-(((5-fluoro-4-oxo-2-(((tetrahydro-2H-pyran-4-yl)thio)methyl)-3,4-dihydroquinazolin-7-yl)oxy)methyl)piperidin-1-yl)azetidin-1-yl)isoindoline-1,3-dione] | – |
| < 100 nM | O=C1CCC(N2C(=O)c3ccc(N4CC(N5CCC(COc6cc(F)c7c(=O)[nH]c(CSC8CCOCC8)nc7c6)C(F)(F)C5)C4)cc3C2=O)C(=O)N1 (stereo not drawn) [Example 42, 5-(3-(3,3-difluoro-4-(((5-fluoro-4-oxo-2-(((tetrahydro-2H-pyran-4-yl)thio)methyl)-3,4-dihydroquinazolin-7-yl)oxy)methyl)piperidin-1-yl)azetidin-1-yl)-2-(2,6-dioxopiperidin-3-yl)isoindoline-1,3-dione] | – |
| < 100 nM | O=C1CCC(N2C(=O)c3ccc(/C=C/CN4CCC(COc5cc(F)c6c(=O)[nH]c(CSC7CCOCC7)nc6c5)CC4)cc3C2=O)C(=O)N1 (stereo not drawn) [Example 43, (E)-2-(2,6-dioxopiperidin-3-yl)-5-(3-(4-(((5-fluoro-4-oxo-2-(((tetrahydro-2H-pyran-4-yl)thio)methyl)-3,4-dihydroquinazolin-7-yl)oxy)methyl)piperidin-1-yl)prop-1-en-1-yl)isoindoline-1,3-dione] | – |
| < 100 nM | CN1CCC(SCc2nc3cc(OCC4CCN(c5ccc6c(c5)C(=O)N(C5CCC(=O)NC5=O)C6=O)CC4)cc(F)c3c(=O)[nH]2)CC1 (stereo not drawn) [Example 44, 2-(2,6-dioxopiperidin-3-yl)-5-(4-(((5-fluoro-2-(((1-methylpiperidin-4-yl)thio)methyl)-4-oxo-3,4-dihydroquinazolin-7-yl)oxy)methyl)piperidin-1-yl)isoindoline-1,3-dione] | – |
| < 100 nM | O=C1CCC(c2ccc(NCC#CCN3CCC(COc4cc(F)c5c(=O)[nH]c(CSC6CCOCC6)nc5c4)CC3)cc2)C(=O)N1 (stereo not drawn) [Example 45, 3-(4-((4-(4-(((5-fluoro-4-oxo-2-(((tetrahydro-2H-pyran-4-yl)thio)methyl)-3,4-dihydroquinazolin-7-yl)oxy)methyl)piperidin-1-yl)but-2-yn-1-yl)amino)phenyl)piperidine-2,6-dione] | – |
| < 100 nM | O=C1CCC(Nc2ccc(OCC3CC(N4CCC(COc5cc(F)c6c(=O)[nH]c(CSC7CCOCC7)nc6c5)CC4)C3)cc2)C(=O)N1 (stereo not drawn) [Example 46, 3-((4-((3-(4-(((5-fluoro-4-oxo-2-(((tetrahydro-2H-pyran-4-yl)thio)methyl)-3,4-dihydroquinazolin-7-yl)oxy)methyl)piperidin-1-yl)cyclobutyl)methoxy)phenyl)amino)piperidine-2,6-dione] | – |
| – | O=C1CCC(Nc2ccc(N3CCN(CCN4CCC(COc5cc(F)c6c(=O)[nH]c(CSC7CCOCC7)nc6c5)CC4)CC3)cc2)C(=O)N1 (stereo not drawn) [Example 48, 3-((4-(4-(2-(4-(((5-fluoro-4-oxo-2-(((tetrahydro-2H-pyran-4-yl)thio)methyl)-3,4-dihydroquinazolin-7-yl)oxy)methyl)piperidin-1-yl)ethyl)piperazin-1-yl)phenyl)amino)piperidine-2,6-dione] | < 100 nM |
| < 100 nM | O=C1CCC(Nc2ccc(C3CCN(CCN4CCC(COc5cc(F)c6c(=O)[nH]c(CSC7CCOCC7)nc6c5)CC4)CC3)cc2)C(=O)N1 (stereo not drawn) [Example 49, 3-((4-(1-(2-(4-(((5-fluoro-4-oxo-2-(((tetrahydro-2H-pyran-4-yl)thio)methyl)-3,4-dihydroquinazolin-7-yl)oxy)methyl)piperidin-1-yl)ethyl)piperidin-4-yl)phenyl)amino)piperidine-2,6-dione] | – |
| < 100 nM | O=C1CCC(Nc2ccc(N3CCN(CCN4CCC(COc5cc(F)c6c(=O)[nH]c(CSC7CCOCC7)nc6c5)CC4)CC3)c(C(F)(F)F)c2)C(=O)N1 (stereo not drawn) [Example 50, 3-((4-(4-(2-(4-(((5-fluoro-4-oxo-2-(((tetrahydro-2H-pyran-4-yl)thio)methyl)-3,4-dihydroquinazolin-7-yl)oxy)methyl)piperidin-1-yl)ethyl)piperazin-1-yl)-3-(trifluoromethyl)phenyl)amino)piperidine-2,6-dione] | – |

| SMILES | DC50 (read-out: DC50) | DC50 |
| --- | --- | --- |
| O=C1CCC(Nc2ccc(OC3CC(CN4CCC(COc5cc(F)c6c(=O)[nH]c(CSC7CCOCC7)nc6c5)CC4)C3)cc2)C(=O)N1 (stereo not drawn) [Example 47, 3-({4-[3-({4-[({5-fluoro-2-[(oxan-4-ylsulfanyl)methyl]-4-oxo-3H-quinazolin-7-yl}oxy)methyl]piperidin-1-yl}methyl)cyclobutoxy]phenyl}amino)piperidine-2,6-dione] | < 100 nM | – |
